Measured values: ChEMBL document CHEMBL1158863, “Oxidations of vincristine catalyzed by peroxidase and ceruloplasmin” (J Nat Prod, 1997)
Converted amounts (≈) assume the structure as drawn.

Test system: CCRF-CEM
Test: Cytotoxicity against human CCRF-CEM cells
Type: functional, cell-based

Compound	IC50 [µg/mL]
CC[C@H](O)C[C@@H]1CN(C=O)CCc2c([nH]c3ccccc23)[C@@](C(=O)OC)(c2cc3c(cc2OC)N(C=O)[C@H]2[C@@](O)(C(=O)OC)[C@H](OC(C)=O)[C@]4(CC)C=CCN5CC[C@]32[C@@H]54)C1	7.1 (≈ 8.44 µM)
CCC(=O)C[C@@H]1CN(C=O)CCc2c([nH]c3ccccc23)[C@@](C(=O)OC)(c2cc3c(cc2OC)N(C)[C@H]2[C@](O)(C(=O)OC)[C@H](OC(C)=O)[C@]4(CC)C=CCN5CC[C@]32[C@@H]54)C1 [CATHARININE]	7.7 (≈ 9.33 µM)
CC[C@]1(O)C[C@@H]2CN(CCc3c([nH]c4ccccc34)[C@@](C(=O)OC)(c3cc4c(cc3OC)N(C)[C@H]3[C@@](O)(C(=O)OC)[C@H](OC(C)=O)[C@]5(CC)C=CCN6CC[C@]43[C@@H]65)C2)C1 [VINBLASTINE]	0.03 (≈ 0.037 µM)
CC[C@]1(O)C[C@H]2CN(CCc3c([nH]c4ccccc34)[C@@](C(=O)OC)(c3cc4c(cc3OC)N(C=O)[C@H]3[C@@](O)(C(=O)OC)[C@H](OC(C)=O)[C@]5(CC)C=CCN6CC[C@]43[C@@H]65)C2)C1 [VINCRISTINE]	0.06 (≈ 0.0727 µM)
